This is an account of results in ChEMBL document CHEMBL1147376, “Isolation and structure elucidation of 34-sulfatobastadin 13, an inhibitor of the endothelin A receptor, from a marine sponge of the genus Ianthella” (J Nat Prod, 1993).

In brackets after ≈: the same amount, converted by molar mass. Activity calls are given as the source filed them. The calls are words filed in the database; no cut-off is given here.

Assay [1] addresses T1, Endothelin receptor type B (Rattus norvegicus) (UniProt P21451).
T1 sequence (whole entry): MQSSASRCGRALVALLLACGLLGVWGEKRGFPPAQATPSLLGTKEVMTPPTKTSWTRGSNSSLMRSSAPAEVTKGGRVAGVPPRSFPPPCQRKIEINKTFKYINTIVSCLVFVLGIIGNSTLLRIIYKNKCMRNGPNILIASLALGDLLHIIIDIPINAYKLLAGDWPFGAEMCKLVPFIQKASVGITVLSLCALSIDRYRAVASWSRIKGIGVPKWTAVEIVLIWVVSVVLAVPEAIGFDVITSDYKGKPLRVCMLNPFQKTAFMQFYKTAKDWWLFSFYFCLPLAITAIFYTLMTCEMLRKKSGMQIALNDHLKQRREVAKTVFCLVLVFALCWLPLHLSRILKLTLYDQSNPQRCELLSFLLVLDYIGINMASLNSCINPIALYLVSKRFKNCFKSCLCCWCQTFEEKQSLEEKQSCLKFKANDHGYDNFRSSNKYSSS
Nature of the assay: Displacement of [125]ET3 from ETB receptor in Sprague-Dawley rat cerebellum at 70 uM.

For assay [2], the target named is T2, Endothelin-1 receptor (Sus scrofa) (UniProt Q29010).
T2 sequence (whole entry): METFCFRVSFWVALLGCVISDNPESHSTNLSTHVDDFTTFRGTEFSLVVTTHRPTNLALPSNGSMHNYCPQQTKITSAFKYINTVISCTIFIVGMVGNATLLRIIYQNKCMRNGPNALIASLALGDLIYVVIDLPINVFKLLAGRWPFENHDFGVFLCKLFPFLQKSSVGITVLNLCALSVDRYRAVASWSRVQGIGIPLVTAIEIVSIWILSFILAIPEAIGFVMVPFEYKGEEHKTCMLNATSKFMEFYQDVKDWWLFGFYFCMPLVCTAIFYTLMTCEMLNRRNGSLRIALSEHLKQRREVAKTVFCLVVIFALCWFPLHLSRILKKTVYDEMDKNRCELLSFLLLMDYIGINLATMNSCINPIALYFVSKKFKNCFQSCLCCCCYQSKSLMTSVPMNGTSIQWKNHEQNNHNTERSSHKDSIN
In words: Displacement of [125]ET1 from ETA receptor in pig thoracic aorta at 70 uM. In kind it is tissue-based.

Assay [3] deals with Bacillus subtilis. In words: Antibacterial activity against Bacillus subtilis ATCC 6633 after 18 to 24 hrs by twofold dilution test. It is filed as functional.
A further assay concerns the target T3, Endothelin-1 receptor (Sus scrofa, UniProt Q29010).
T3 sequence (Q29010 whole entry): T2 sequence (whole entry)
In words: Displacement of [125]ET1 from ETA receptor in pig thoracic aorta.

Assay [4] has as its system Bacillus subtilis. In words: Antibacterial activity against Bacillus subtilis ATCC 6633 at 50 ug/mL after 18 to 24 hrs by twofold dilution test. In kind it is functional, organism-based.

As a reminder, the inhibition is the percentage by which the read-out fell short of the control. A lower inhibition goes with little suppression. As a reminder, the MIC is the lowest concentration that inhibits growth of the organism. Low readings indicate a more susceptible organism, high ones a less susceptible organism. Take `O=C1NCCc2ccc(c(Br)c2)Oc2cc(ccc2O)CCNC(=O)/C(=N/O)Cc2cc(Br)c(O)c(c2)Oc2c(Br)cc(cc2Br)C/C1=N\O` [BASTADIN 13]: the inhibition amounted to 30% in assay [1] and 32% in assay [2]. Moreover, in the assay with Bacillus subtilis [3], the MIC is 6 µg/mL (≈ 6.38 µM).

Usually IC50 stands for the concentration that inhibits the measured activity by half. Read a high IC50 as a need for much substance. Regarding `O=C1NCCc2ccc(c(Br)c2)Oc2cc(ccc2O)CCNC(=O)/C(=N/O)Cc2cc(Br)c(OS(=O)(=O)O)c(c2)Oc2c(Br)cc(cc2Br)C/C1=N\O`, the IC50 at Endothelin-1 receptor came out at 39 µM. Also, the outcome in the assay with Bacillus subtilis [4] was inactive. This compound displayed an inhibition in assay [1] of 27%.
